According to patent publication US20090124562A1, “Versipelostatin derivative, anti-cancer agent and processes for production of the derivative and agent” (TOUDAI TLO, LTD., priority 2005, published 2009):

Columns and labels:
HT 1080 cell [1] = assay: MTT assay, cell survival rate (Example 8); format: cell-based; conditions: for cell survival rate (MTT assay): 24 hours
GRP 78 = assay: Western blot of GRP 78 expression in HT 1080 cell (Examples 6, 7); format: cell-based; conditions: glucose-deficient condition, cultured 18 hours, FIGS. 5 to 8
From the text: In Example 6, the action of the VST derivative to inhibit expression of GRP 78 was studied by Western blot method. In the present experiment, the compounds prepared in Example 1 (the compounds having the chemical structure represented by “Formula 11” as the substituent group R^1 (n=3)) was used as the VST derivative.
Expression of GRP 78 is known to induce under glucose-deficient condition. Thus in the present experiment, the action of the VST derivative to induce or inhibit expression of GPR78 was studied both under glucose-deficient condition and also under normal condition.
The experiment was performed generally in the following manner: First, HT 1080 cell (cancer cell) was cultured in RPMI 1640 medium. […] Then, cultured cells were harvested, and GRP 78 expressed was detected by Western blotting with an anti-GRP 78 antibody.
Then, the cell was cultured in a similar manner and condition to those in Example 6, and GRP 78 expressed was detected by Western blotting by using an anti-GRP 78 antibody.

HT 1080 cell [2] = assay: Toxicity at the cell level, cell count at 100 μM (Examples 11, 12); format: cell-based
Description: HT 1080 cell was cultured in a 6-cm dish until the cells became 70% confluent, and VST or a VST derivative was added to a concentration of 10, 3, or 1 μM in the absence of glucose (in the glucose-deficient state), and the action thereof was studied.
In the present Example, the VST derivative prepared in Example 1 (the compounds having the chemical structure represented by “Formula 11” as the substituent group R^1 (n=3)) was used as the VST derivative. […] In the present Example, VST or the VST derivative was added at a concentration of 100 μM.
In the present Example, the culture cell was brought into the glucose-deficient state by addition of 2-deoxyglucose.
The three kinds of VST biotin derivatives prepared in Example 7 were used as the VST derivatives. In the present Example, VST or the VST derivative was added to a concentration of 100 μM, and 2-DG, to a concentration of 20 mM.

ICR mice = assay: Acute toxicity experiment in mice (Example 13); format: in vivo; conditions: male ICR mice, tail vein injection
Description: The mice used were 7- to 8-week old male ICR mice (available from Charles River). VST or a VST derivative was administered to each mouse by tail vein injection, and the toxicity thereof was studied. In the present experiment, the VST biotin derivative prepared in Example 7 was used as the VST derivative.

Molecule	cell survival rate (MTT assay) (HT 1080 cell [1]; 20 mM 2-DG alone)	induction of GRP 78 expression (Western blot) (GRP 78)	addition amount above which the cell survival rate declined significantly (HT 1080 cell [1]; 2-DG not added, MTT assay)	cell survival rate (MTT assay) (HT 1080 cell [1]; 2-DG not added, increasing addition amount, derivatives = VST-Biotin, VST-Biotin-C6, VST-Biotin-C12)	cell survival rate (MTT assay) (HT 1080 cell [1]; with 20 mM 2-DG (glucose-deficient state), derivatives = VST-Biotin, VST-Biotin-C6, VST-Biotin-C12)	cell death (HT 1080 cell [2]; Example 11: HT 1080 cell, glucose-deficient state)	cell count (HT 1080 cell [2]; Example 11: HT 1080 cell, normal culture environment (glucose present))	cell death (HT 1080 cell [2]; Example 12: HT 1080 cell, glucose-deficient state by 2-DG 20 mM, three VST biotin derivatives of Example 7)	cell count (HT 1080 cell [2]; Example 12: HT 1080 cell, normal culture environment, three VST biotin derivatives of Example 7)	Number of dead animals (within 24 hours) (ICR mice; 6 mg/kg)	Number of dead animals (within 24 hours) (ICR mice; 9 mg/kg)	Number of dead animals (within 24 hours) (ICR mice; 12 mg/kg)	Number of dead animals (within 24 hours) (ICR mice; 15 mg/kg)	Number of dead animals (within 24 hours) (ICR mice; 18 mg/kg)	Number of dead animals (within 24 hours) (ICR mice; 21 mg/kg)	Number of dead animals (within 24 hours) (ICR mice; 30 mg/kg)	dosage leading to death of all mice (ICR mice; summary of Table 1)
O=CC[C@@H](O)[C@H](O)[C@H](O)CO [Example 2-DG, 2-deoxyglucose]	approximately 50%																
versipelostatin [VST]		inhibited to some extent	exceeded 25 μM	declined significantly	around 30%	cell death	significant decrease in cell count	cell death	significant drop in cell count	0	0	1	5	4	4	4	more than 18 mg/kg
